# Measurements as given in patent US20050118276A1, “Coated metal pyrithione particles for treatment of microorganisms” (Arch Chemicals, Inc., priority 2003, published 2005).
# Test system: Malassezia furfur
# Experiment: comparative corneofungimetry bioassay on human stratum corneum strippings
# Format: cell-based
# Conditions: for Median positive fungal cells# from 20 samples: 9 days at 27° C., neutral red vital stain, counted by mm^2
# [1] = 1% zinc pyrithione water suspension
# [2] = formulated shampoo containing 1% zinc pyrithione
# Procedure: As a more advanced test, “corneofungimetry” was used to evaluate the particles prepared in accordance with the Example and Comparative Examples. This test is a good pre-clinical screening method because it requires growing the Malassezia furfur sp on a substrate that is more representative of its natural environment. Cyanoacrylate is used to harvest a layer of skin, and these skin surface strippings are treated with olive oil to simulate sebum. The prepared skin samples are then treated with the actives under investigation, inoculated with the microorganism of interest and incubated.
# The corneofungimetry bioassay was performed on normal stratum corneum harvested from 20 healthy volunteers using cyanoacrylate adhesive. Samples were dipped into olive oil and stored in a sterile environment for 3 days.
# Malassezia furfur was cultured on MLNA (Modified Leeming and Notman Agar) medium. Suspensions of fungal cells were prepared in physiologic saline (10^4-10^5 cells/ml). Aliquots of 250 μl of these suspensions were deposited onto the stratum corneum samples and incubated under moist conditions at 27° C. for 9 days. Samples were then stained using neutral red as a vital stain identifying living fungi growing on the human stratum corneum. The number of positive fungal cells was counted by mm^2 using computerized image analysis (Analysis Olympus). The medians and ranges were determined. Between-product comparisons were performed using the paired non-parametric Friedman test followed by the Dunn test.
substance,measurement,setting,value
zinc pyrithione [Uncoated],% killing compared to saline control,[1],44%
same,Median positive fungal cells# from 20 samples,[1],451
same,% killing compared to saline control,[2],52%
same,Median positive fungal cells# from 20 samples,[2],363
